BindingDB's records for doi:10.1007/s002130100844 (Case Western Reserve University, 2001)
Values joined by “and” are separate entries in the source; they are usually repeats but may differ in a detail not shown here. Equal entries are not always repeated.

How the values were obtained:
[1] = target: Alpha-2B adrenergic receptor (Homo sapiens, UniProt P18089)
[2] = target: Sodium-dependent dopamine transporter (Bos taurus, UniProt P27922)
Mu-type opioid receptor = Mu-type opioid receptor (Homo sapiens, UniProt P35372)
[3] = target: 5-hydroxytryptamine receptor 1E (Homo sapiens, UniProt P28566)
[4] = target: Muscarinic acetylcholine receptor M3 (Homo sapiens, UniProt P20309)
[5] = target: Alpha-1A adrenergic receptor (Homo sapiens, UniProt P35348)
Alpha-1A adrenergic receptor, sequence (P35348 whole entry): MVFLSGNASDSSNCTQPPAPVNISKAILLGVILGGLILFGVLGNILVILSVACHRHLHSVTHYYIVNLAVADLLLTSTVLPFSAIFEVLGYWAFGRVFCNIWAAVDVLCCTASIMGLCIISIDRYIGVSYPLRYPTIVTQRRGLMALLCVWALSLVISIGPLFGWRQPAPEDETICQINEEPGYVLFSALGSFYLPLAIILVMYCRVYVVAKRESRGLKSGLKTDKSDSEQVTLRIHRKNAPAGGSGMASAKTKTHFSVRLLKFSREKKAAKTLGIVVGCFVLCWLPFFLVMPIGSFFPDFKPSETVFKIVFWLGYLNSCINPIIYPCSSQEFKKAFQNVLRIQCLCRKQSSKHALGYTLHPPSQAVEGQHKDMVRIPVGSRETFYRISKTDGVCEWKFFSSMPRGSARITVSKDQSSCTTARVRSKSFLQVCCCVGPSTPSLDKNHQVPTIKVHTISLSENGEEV

[6] = target: 5-hydroxytryptamine receptor 2C (Rattus norvegicus, UniProt P08909)
[7] = target: Muscarinic acetylcholine receptor M5 (Homo sapiens, UniProt P08912)
Muscarinic acetylcholine receptor M5, sequence (P08912 whole entry): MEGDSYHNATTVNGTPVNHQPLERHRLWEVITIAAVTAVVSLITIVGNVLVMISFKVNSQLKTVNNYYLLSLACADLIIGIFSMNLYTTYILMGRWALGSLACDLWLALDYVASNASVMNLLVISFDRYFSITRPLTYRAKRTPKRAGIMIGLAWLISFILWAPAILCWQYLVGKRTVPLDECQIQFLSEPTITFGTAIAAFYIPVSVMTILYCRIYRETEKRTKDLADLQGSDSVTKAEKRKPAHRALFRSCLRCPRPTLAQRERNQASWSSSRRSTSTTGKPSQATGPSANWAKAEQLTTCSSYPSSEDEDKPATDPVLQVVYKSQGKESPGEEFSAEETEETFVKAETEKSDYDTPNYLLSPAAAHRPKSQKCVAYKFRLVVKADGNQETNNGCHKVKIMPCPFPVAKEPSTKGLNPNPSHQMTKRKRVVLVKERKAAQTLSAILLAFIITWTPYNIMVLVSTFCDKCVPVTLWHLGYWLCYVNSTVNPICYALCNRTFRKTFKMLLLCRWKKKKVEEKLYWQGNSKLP

[8] = target: Delta-type opioid receptor (Homo sapiens, UniProt P41143)
[9] = target: Muscarinic acetylcholine receptor M1 (Homo sapiens, UniProt P11229)
Muscarinic acetylcholine receptor M1, sequence (P11229 whole entry): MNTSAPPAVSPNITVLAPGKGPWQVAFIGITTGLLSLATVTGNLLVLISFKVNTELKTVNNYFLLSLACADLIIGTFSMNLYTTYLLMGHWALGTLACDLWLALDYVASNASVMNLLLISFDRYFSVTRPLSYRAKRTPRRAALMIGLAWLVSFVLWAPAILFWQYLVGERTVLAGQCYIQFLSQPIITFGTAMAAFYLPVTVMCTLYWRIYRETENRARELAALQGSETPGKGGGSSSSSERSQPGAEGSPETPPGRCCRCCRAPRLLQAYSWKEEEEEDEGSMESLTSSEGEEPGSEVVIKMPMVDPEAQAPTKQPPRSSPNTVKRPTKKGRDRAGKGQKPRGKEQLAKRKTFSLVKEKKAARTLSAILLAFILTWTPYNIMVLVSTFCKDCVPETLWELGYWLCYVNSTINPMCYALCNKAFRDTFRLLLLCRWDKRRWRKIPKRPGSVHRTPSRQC

[10] = target: Sodium-dependent serotonin transporter (Homo sapiens, UniProt P31645)
[11] = target: 5-hydroxytryptamine receptor 5A (Homo sapiens, UniProt P47898)
[12] = target: Alpha-2C adrenergic receptor (Homo sapiens, UniProt P18825)
Alpha-2C adrenergic receptor, sequence (P18825 whole entry): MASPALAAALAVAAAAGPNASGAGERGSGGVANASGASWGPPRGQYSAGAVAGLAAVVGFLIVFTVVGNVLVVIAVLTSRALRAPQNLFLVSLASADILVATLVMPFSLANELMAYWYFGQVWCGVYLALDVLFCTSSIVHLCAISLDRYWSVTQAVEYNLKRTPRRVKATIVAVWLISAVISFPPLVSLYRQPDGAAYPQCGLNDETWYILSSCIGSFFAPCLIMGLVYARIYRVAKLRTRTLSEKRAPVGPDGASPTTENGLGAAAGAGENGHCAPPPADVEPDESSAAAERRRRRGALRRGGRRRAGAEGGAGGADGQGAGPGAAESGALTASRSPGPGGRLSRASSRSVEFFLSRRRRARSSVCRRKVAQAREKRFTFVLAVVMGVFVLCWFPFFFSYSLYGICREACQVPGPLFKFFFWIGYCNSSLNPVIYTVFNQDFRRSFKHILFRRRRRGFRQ

[13] = target: 5-hydroxytryptamine receptor 1D (Homo sapiens, UniProt P28221)
D(1B) dopamine receptor = D(1B) dopamine receptor (Homo sapiens, UniProt P21918)
[14] = target: Beta-1 adrenergic receptor (Homo sapiens, UniProt P08588)
Beta-1 adrenergic receptor, sequence (P08588 whole entry): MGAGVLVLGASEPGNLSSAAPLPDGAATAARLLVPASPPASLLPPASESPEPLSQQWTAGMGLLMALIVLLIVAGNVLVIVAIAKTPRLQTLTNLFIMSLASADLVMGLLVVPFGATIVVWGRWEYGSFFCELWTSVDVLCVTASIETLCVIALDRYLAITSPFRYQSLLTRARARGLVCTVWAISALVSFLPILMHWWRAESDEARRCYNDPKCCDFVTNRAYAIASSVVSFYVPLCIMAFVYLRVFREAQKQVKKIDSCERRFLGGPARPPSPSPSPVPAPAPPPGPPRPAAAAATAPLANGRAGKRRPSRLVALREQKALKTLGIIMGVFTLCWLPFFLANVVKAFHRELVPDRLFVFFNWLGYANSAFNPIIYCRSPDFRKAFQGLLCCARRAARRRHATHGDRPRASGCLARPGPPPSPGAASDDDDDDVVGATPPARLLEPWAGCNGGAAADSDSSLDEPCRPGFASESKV

D(4) dopamine receptor = D(4) dopamine receptor (Rattus norvegicus, UniProt P30729)
[15] = target: Kappa-type opioid receptor (Homo sapiens, UniProt P41145)
[16] = target: Glutamate receptor ionotropic, NMDA 1 (Rattus norvegicus, UniProt P35439)
[17] = target: Muscarinic acetylcholine receptor M4 (Homo sapiens, UniProt P08173)
[18] = target: 5-hydroxytryptamine receptor 7 (Homo sapiens, UniProt P34969)
5-hydroxytryptamine receptor 7, sequence (P34969 whole entry): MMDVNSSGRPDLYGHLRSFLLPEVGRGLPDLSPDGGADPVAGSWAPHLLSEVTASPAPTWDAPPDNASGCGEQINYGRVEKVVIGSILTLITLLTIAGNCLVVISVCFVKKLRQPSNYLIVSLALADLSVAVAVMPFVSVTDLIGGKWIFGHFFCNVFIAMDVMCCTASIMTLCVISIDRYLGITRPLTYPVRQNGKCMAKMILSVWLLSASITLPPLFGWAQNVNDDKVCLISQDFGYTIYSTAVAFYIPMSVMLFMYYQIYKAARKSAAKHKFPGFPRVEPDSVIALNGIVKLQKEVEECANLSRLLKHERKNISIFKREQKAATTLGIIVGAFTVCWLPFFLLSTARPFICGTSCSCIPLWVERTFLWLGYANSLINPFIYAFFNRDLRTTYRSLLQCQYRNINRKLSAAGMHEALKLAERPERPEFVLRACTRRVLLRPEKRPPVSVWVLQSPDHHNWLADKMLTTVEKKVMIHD

[19] = target: Gamma-aminobutyric acid type B receptor subunit 1 (UniProt Q9Z0U4)
[20] = target: Beta-2 adrenergic receptor (Homo sapiens, UniProt P07550)
Beta-2 adrenergic receptor, sequence (P07550 whole entry): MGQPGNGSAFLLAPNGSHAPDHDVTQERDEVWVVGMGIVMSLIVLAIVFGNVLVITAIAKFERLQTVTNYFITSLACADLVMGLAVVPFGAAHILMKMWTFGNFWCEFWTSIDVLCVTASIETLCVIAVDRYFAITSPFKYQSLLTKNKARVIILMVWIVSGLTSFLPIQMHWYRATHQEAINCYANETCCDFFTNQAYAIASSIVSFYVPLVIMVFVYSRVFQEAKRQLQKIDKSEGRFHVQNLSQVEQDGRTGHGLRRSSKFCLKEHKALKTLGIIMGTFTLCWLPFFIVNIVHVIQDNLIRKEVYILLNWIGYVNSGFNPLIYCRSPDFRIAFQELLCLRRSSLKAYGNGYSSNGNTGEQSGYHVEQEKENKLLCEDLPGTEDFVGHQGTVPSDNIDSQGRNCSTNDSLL

[21] = target: Alpha-1B adrenergic receptor (Homo sapiens, UniProt P35368)
Alpha-1B adrenergic receptor, sequence (P35368 whole entry): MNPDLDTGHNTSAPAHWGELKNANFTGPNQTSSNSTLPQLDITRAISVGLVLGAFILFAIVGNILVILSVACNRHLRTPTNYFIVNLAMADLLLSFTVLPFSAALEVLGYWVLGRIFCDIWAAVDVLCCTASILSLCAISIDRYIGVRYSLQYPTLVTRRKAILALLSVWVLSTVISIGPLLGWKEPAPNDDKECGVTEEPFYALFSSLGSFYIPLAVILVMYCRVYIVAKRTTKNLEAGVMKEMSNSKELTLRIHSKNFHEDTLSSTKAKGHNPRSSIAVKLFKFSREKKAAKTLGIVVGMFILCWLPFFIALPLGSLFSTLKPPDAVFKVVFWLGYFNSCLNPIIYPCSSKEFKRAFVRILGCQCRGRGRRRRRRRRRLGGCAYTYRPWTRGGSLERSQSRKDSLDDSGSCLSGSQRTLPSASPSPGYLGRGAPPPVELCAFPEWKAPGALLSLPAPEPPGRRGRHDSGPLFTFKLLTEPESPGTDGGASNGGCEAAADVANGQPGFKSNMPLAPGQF

[22] = target: Sodium-dependent noradrenaline transporter (Homo sapiens, UniProt P23975)
Vasopressin V1b receptor = Vasopressin V1b receptor (Homo sapiens, UniProt P47901)
[23] = target: Alpha-2A adrenergic receptor (Homo sapiens, UniProt P08913)
Alpha-2A adrenergic receptor, sequence (P08913 whole entry): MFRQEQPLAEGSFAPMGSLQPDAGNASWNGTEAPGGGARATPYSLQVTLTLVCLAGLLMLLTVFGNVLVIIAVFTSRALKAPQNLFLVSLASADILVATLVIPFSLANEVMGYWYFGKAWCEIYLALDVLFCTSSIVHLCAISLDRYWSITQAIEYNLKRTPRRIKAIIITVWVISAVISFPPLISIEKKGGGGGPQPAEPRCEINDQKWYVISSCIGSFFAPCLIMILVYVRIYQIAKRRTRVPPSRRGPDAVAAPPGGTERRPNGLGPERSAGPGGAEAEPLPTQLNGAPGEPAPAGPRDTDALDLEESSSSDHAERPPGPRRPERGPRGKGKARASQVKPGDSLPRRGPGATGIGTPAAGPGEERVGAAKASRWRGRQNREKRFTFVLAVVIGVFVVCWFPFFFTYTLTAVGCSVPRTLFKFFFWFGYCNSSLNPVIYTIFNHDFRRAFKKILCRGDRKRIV

D(1A) dopamine receptor = D(1A) dopamine receptor (Homo sapiens, UniProt P21728)
D(2) dopamine receptor = D(2) dopamine receptor (Rattus norvegicus, UniProt P61169)
[24] = target: 5-hydroxytryptamine receptor 2A (Rattus norvegicus, UniProt P14842)

Alpha-2B adrenergic receptor, sequence (P18089 whole entry): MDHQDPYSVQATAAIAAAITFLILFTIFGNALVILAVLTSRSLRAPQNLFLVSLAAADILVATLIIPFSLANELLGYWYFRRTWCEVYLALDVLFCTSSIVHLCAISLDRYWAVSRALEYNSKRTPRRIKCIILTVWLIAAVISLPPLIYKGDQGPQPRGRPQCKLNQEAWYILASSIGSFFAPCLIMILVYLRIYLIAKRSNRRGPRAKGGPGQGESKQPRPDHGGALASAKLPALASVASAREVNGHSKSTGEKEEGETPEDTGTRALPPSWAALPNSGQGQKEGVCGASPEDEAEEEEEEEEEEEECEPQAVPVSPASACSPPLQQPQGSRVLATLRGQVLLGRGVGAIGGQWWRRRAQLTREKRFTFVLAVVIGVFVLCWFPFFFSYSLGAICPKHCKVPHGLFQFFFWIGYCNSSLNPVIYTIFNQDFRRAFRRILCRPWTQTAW

CC(CF)NCC(O)COc1cccc2[nH]c3ccccc3c12 [Fluorocarazolol,(S)]
Ki [1]: > 10 µM and 8.85 µM
Ki [2]: > 10 µM
Ki (Mu-type opioid receptor): > 10 µM
Ki [3]: > 10 µM
Ki [4]: > 10 µM and 1.59 µM
Ki [5]: 3.2 µM and 0.611 µM
Ki [6]: > 10 µM
Ki [7]: 4.88 µM and 5.89 µM
Ki [8]: > 10 µM
Ki [9]: 2.73 µM and 1.75 µM
Ki [10]: > 10 µM
Ki [11]: > 10 µM
Ki [12]: 1.89 µM and 4.4 µM
Ki [13]: 3.28 µM and 3.09 µM
Ki (D(1B) dopamine receptor): > 10 µM
Ki [14]: 0.00045 µM and 0.000114 µM
Ki (D(4) dopamine receptor): > 10 µM
Ki [15]: > 10 µM
Ki [16]: > 10 µM
Ki [17]: 5.41 µM and > 10 µM
Ki [18]: 7.07 µM and 6.4 µM
Ki [19]: > 10 µM
Ki [20]: 0.138 nM and 0.079 nM
Ki [21]: 4.6 µM and 0.677 µM
Ki [22]: > 10 µM
Ki (Vasopressin V1b receptor): > 10 µM
Ki [23]: 3.36 µM and 2.87 µM
Ki (D(1A) dopamine receptor): > 10 µM
Ki (D(2) dopamine receptor): > 10 µM
Ki [24]: > 10 µM
